Reference: patent US20180243327A1, “USE OF SECOISOLARICIRESINOL DIGLUCOSIDES (SDGs) AND RELATED COMPOUNDS FOR PROTECTION AGAINST RADIATION DAMAGE” (THE TRUSTEES OF THE UNIVERSITY OF PENNSYLVANIA, priority 2015, published 2018)

Columns and labels:
[1] = Antioxidant and free radical scavenging characteristics
Source text: FIG. 1. Bioactive polyphenolic plant lignans in flaxseed and radiation Damage. Secoisolariciresinol diglucoside (SDG) is the major lignan phenolic in flaxseed. Due to complex SDG extraction, purification and enrichment methods from natural resources, SDG was chemically synthesized. […] (B) The structure of SDG.

[2] = Activity of synthetic SDG compared with natural SDG; settings: synthetic vs natural counterpart
Source text: Using a mouse model of proton radiation exposure, we have identified dose-dependent pathophysiological changes in the lung. […] Thus, we further hypothesize that LGM2605 will be effective against proton-induced pulmonary damage, such as inflammation, oxidative stress and senescence.

[3] = tested on: human precision-cut lung slices (huPCLS); test: Proinflammatory cytokine gene levels (qPCR) in huPCLS after 4 Gy proton radiation; format: cell-based; settings: 50 Mm LGM2605 given 4 hours prior, 30 min and 24 hours post irradiation, normalized to 18S rRNA
Method: (§1) FIG. 2: Novel Ex vivo model of human lung: human precision-cut lung slices for radiation exposure. Human Precision-cut slice preparation: Slices (huPCLS) were obtained by inflating the donor human lung with low melting temperature agarose, sectioning, coring, and slicing, as shown above. The 350 μm thick slices were washed three times with culture medium to rid airways of agarose and are viable at 37 °C, up to a week.
FIG. 3: Evaluation of inflammatory markers, in huPCLS, at 30 min and 24 hours post 4 Gy proton radiation with or without SDG pre-treatment for 4 hours. Transcript levels of (A) IL1B, (B) IL6 and (C) TNF-alpha are normalized to 18S rRNA. *p<0.05.
(§2) Methods: Since the testing of our hypothesis in human tissues is critical and cannot be mechanistically pursued in patients, we pursued a novel approach, using an ex vivo model of human normal lung precision-cut sections (huPCLS), used for the first time to our knowledge, in radiation studies. The huPCLS consist of all relevant cell types of the respiratory tract, situated in their microanatomical environment, validated for pharmacological testing. Human lung sections were exposed to 4 Gy proton radiation in the presence of 0 and 50 Mm LGM2605, given 4 hours prior to exposure. Tissues were evaluated 30 min and 24 hours post irradiation for gene expression, protein level changes, and betagalactosidase activity, relevant to inflammation, oxidative stress and senescence.

[4] = tested on: human precision-cut lung slices (huPCLS); test: Antioxidant gene levels (qPCR) in huPCLS after 4 Gy proton radiation; format: cell-based; settings: 50 Mm LGM2605 given 4 hours prior, 30 min and 24 hours post irradiation, normalized to 18S rRNA
Method: as §1
FIG. 4: qPCR analysis of (A) HMOX-1 and (B) NQO1 in huPCLS after 30 min and 24 hours post 4 Gy proton radiation with or without SDG pretreatment for 4 hours. Data are represented as average fold change from non-irradiated control±SEM. Transcript levels of tested genes are normalized to 18S rRNA. *p<0.05.
as §2, with “Human lung sections were exposed to 4 Gy proton radiation in the presence of 0 and 50 Mm LGM2605, given 4 hours prior to exposure.” left out

[5] = tested on: human precision-cut lung slices (huPCLS); test: Senescence marker protein levels (Western Blot of whole tissue lysates) in huPCLS treated with proton; format: cell-based; settings: proton radiation, 50 Mm LGM2605 given 4 hours prior
Method: as §1
(§3) FIG. 6: LGM2605 decreases Proton Radiation-induced Senescence Markers, both at the Gene and Protein Level, in huPCLS. […] Transcript levels of tested genes are normalized to 18S rRNA.*p<0.05.
as §2

[6] = tested on: human precision-cut lung slices (huPCLS); test: Senescence marker gene levels (qPCR) in huPCLS after 4 Gy proton radiation; format: cell-based; settings: 50 Mm LGM2605 given 4 hours prior, 30 min and 24 hours post irradiation
Method: as §1, §3, §2

[7] = tested on: human precision-cut lung slices (huPCLS); test: SA-β-Gal staining of huPCLS post proton radiation; format: cell-based; settings: 24 hour post proton radiation, 50 Mm LGM2605 given 4 hours prior
Method: as §1
FIG. 5: LGM2605 reduces senescent-like phenotype of huPCLS. […] A) SA-β-Gal staining of huPCLS at 24 hour post proton radiation. B) Quantification of the β-gal positive stained cells. Percentage change of the β-gal positive cells of the irradiated huPCLS compared to the nonirradiated huPCLS.
as §2, with “Human lung sections were exposed to 4 Gy proton radiation in the presence of 0 and 50 Mm LGM2605, given 4 hours prior to exposure.” left out

With `COc1cc(C[C@@H](CO[C@@H]2O[C@H](CO)[C@@H](O)[C@H](O)[C@H]2O)[C@H](CO[C@@H]2O[C@H](CO)[C@@H](O)[C@H](O)[C@H]2O)Cc2ccc(O)c(OC)c2)ccc1O` [LGM2605, secoisolariciresinol diglucoside] the “antioxidant and free radical scavenging characteristics” value [1] was “strong antioxidant and free radical, scavenging characteristics”, the “activity relative to natural SDG” value [2] was “equipotent activity with its natural counterpart” and the “IL-1β (IL1B) inflammatory marker gene level” value [3] was “reduction”. For the same compound, the “IL-6 (IL6) inflammatory marker gene level” value [3] was “reduction”, the “TNFα inflammatory marker gene level” value [3] was “reduction” and the “antioxidant HO (HMOX-1) gene level” value [4] was “increase”. For the same compound, the “antioxidant NQO1 gene level” value [4] was “increase”, the “p16 senescent marker protein level” value [5] was “reduces” and the “p53 senescent marker protein level” value [5] was “reduces”. The “CDKN2A senescent marker gene level” value [6] was “reduces”, the “TP53 senescent marker gene level” value [6] was “reduces” and the “senescent-like phenotype (SA-β-galactosidase positive staining)” value [7] was “protects huPCLS from a senescent-like phenotype”.
